# Results reported in article PMC12307992, “The Potential Influence of Associated Antidepressants on the Pharmacokinetic Profile of Esketamine in Patients Affected by Treatment-resistant Depression” (Current Neuropharmacology, 2025).
# What was measured:
# [1] = design: method as in earlier work; conditions: ref Data on File. Esketamine. Summary of Clinical Pharmacology. Janssen Research & Development, LLC. EMDS-ERI-149761559; 2018; cited from earlier work
# [2] = Adverse events 20 min post-esketamine (blood pressure, dizziness, confusion, ACES) in relation to serum levels; format: in vivo, patients
# Description: Adverse events of intranasal administration of esketamine were evaluated 20 min post-esketamine initiation, such as changes in systolic and diastolic blood pressure, vertigo, dissociation, dizziness, sedation, headache, nausea and vomiting, and confusion.
# (§1) To assess the changes in clinical status with treatment, we administered the following clinical scales at BL and one month after the first intranasal esketamine: clinician-rated Brief Psychiatric Rating Scale-version 4.0 (BPRS-24) to evaluate psychiatric symptoms; Montgomery-Åsberg Depression Rating Scale (MADRS) and Hamilton Depression Rating Scale (HAM-D) to assess depression; Hamilton Anxiety Rating Scale (HAM-A) to assess anxiety; Young Mania Rating Scale (YMRS) to assess manic symptoms, Clinical Global Impressions Scale (CGI) to assess the overall severity (CGI-S) and improvement (CGI-I), with CGI-S administered at both timepoints and CGI-I only at 1 month. Self-rated scales included the Beck Depression Inventory, 2nd edition (BDI-II), used to assess the cognitive aspects of depression (Beck’s cognitive triad), and the World Health Organization Quality of Life Scale-Brief (WHOQOL-BREF) to assess patient’s quality-of-life (QoL). For all scales save the WHOQOL-BREF, higher scores indicate higher psychopathology, while for the WHOQOL-BREF, higher scores reflect better QoL. Furthermore, we administered the clinician-rated Agitation-Calmness Evaluation Scale (ACES) to assess agitation vs. sedation during the first esketamine administration phase (BL to 72 hours). ACES is a single-item scale, in which scores from 1 to 3 are inversely related to the degree of agitation, and scores from 5 to 9 are directly related to calmness and sedation, until the score of 8 and 9, which indicate deep sleep and unarousable state, respectively. Finally, we evaluated dissociation with the Clinician-Administered Dissociative States Scale (CADSS) following the first esketamine administration (BL to 72 hours).
# After having applied the Shapiro-Wilk test to ascertain the normality of distribution of our sample and the Mauchly sphericity test to assess the validity of the Analysis of Variance (ANOVA), we proceeded by performing parametric tests. We used the ANOVA-1way to compare samples for continuous variables and Fishers Least Significant Difference (LSD) to test differences in nominal variables. We used Grubbs’ test (alpha=0.05) to identify statistically significant outliers to exclude them from further analyses. Correlations were sought through Pearson’s r correlation coefficient. Besides concentrations, we calculated the area under the curve (AUC) as stated above. For all other calculations, we used the IBM Statistical Package for the Social Sciences (SPSS), version 29.0 (September 2022, Armonk, New York: IBM Corporation).
# [3] = Clinical rating scales at baseline and one month after first intranasal esketamine; format: in vivo, patients
# Description: as §1
# [4] = after intranasal administration; cited from earlier work
# [5] = phase 3 studies; cited from earlier work
# [6] = Serum esketamine levels (LC-MS/MS) after intranasal esketamine 56 mg in TRD patients; conditions: for AUC: human, serum, other: intranasal, 56 mg, AUC value, 0-72 h
# [7] = Salivary esketamine levels (LC-MS/MS) after intranasal esketamine 56 mg in TRD patients
# [8] = 20 min post-esketamine, 15 patients
# [9] = one month following initial esketamine administration, 15 patients
smiles,measurement,setting,value
CC[C@H]1OC(=O)[C@H](C)[C@@H](O[C@H]2C[C@@](C)(OC)[C@@H](O)[C@H](C)O2)[C@H](C)[C@@H](O[C@@H]2O[C@H](C)C[C@H](N(C)C)[C@H]2O)[C@](C)(OC)C[C@@H](C)C(=O)[C@H](C)[C@@H](O)[C@]1(C)O [clarithromycine],Effect of co-treatment on the PK profile of esketamine,[1],negligible effect
"CN[C@]1(c2ccccc2Cl)CCCCC1=O [esketamine, (S)-isomer of ketamine]",Correlation (χ2) of confusion with serum esketamine levels,"[2]; 20 min post-administration, p < 0.05",3.830
same,Correlation (χ2) of dizziness with serum esketamine levels,"[2]; 20 min post-administration, p = 0.043",4.114
same,Patients with blood pressure reduced,[2]; [8],28.3%
same,Patients with blood pressure relatively unchanged,[2]; [8],28.3%
same,Patients with a rise in systolic blood pressure,"[2]; 20 min post-esketamine, 23 of 53 patients",43.4%
same,Correlation (r) between serum esketamine values and changes in systolic blood pressure,"[2]; at 20 min, p = 0.0003",0.23
same,Correlation (r) between esketamine levels and changes in ACES,"[2]; at 20 minutes, p = 0.02",0.1
same,"Global scores of all clinical scales (BPRS-Total, MADRS, BDI, WHOQOL-BREF or CGI)",[3]; 1 month after esketamine administration,improved
same,YMRS values,"[3]; absolute score, all patients",< 8
same,Patients in whom HAM-A values dropped,[3]; baseline to 1 month,51 of 53
same,Patients with YMRS scores increased,[3]; [9],28.3%
same,Patients with YMRS scores unchanged,[3]; [9],28.3%
same,Patients with YMRS scores decreased,"[3]; one month following initial esketamine administration, 23 patients",43.4%
same,elimination half-life (t½),[4],7 to 12 h
same,time to reach maximum plasma concentrations (Tmax),[4],0.333 to 0.667 h
same,Patients with a rise in blood pressure,[5],< 10%
same,Serum esketamine levels after 72 hours,"[6]; 56 mg intranasal, all groups",undetectable
same,AUC value of patient greater than average value of the group,[6]; group 2 patient on oxcarbazepine vs group 2 average,46%
same,AUC,"[6]; average of group, group 1 (paroxetine/fluoxetine)",868 ng·h/mL
same,AUC,"[6]; average of group, group 2 (duloxetine)",655 ng·h/mL
same,AUC,"[6]; average of group, group 3 (venlafaxine/desvenlafaxine)",857 ng·h/mL
same,AUC,"[6]; average of group, group 4 (sertraline/citalopram/escitalopram)",419 ng·h/mL
same,AUC,"[6]; average of group, group 5 (vortioxetine)",439 ng·h/mL
same,AUC,"[6]; average of group, group 6 (TCAs/mirtazapine/trazodone)",705 ng·h/mL
same,AUC,"[6]; single patient, group 1 patient on paroxetine, bupropion, valproate and atorvastatine",628 ng·h/mL
same,AUC,"[6]; single patient, group 2 patient also on oxcarbazepine",954 ng·h/mL
same,AUC,"[6]; single patient, group 3 patient also on valproate",298 ng·h/mL
same,AUC,"[6]; single patient, group 3 patient also on valproate and atorvastatin",599 ng·h/mL
same,AUC,"[6]; single patient, group 4 patient also on topiramate",921 ng·h/mL
same,AUC,"[6]; single patient, group 5 patient also on prednisone",957 ng·h/mL
same,AUC,"[6]; single patient, group 6 patient on mirtazapine and oxcarbazepine",260 ng·h/mL
same,Salivary levels of esketamine at 20 min relative to serum levels,[7]; 56 mg intranasal,several-fold greater than serum levels
same,Esketamine levels in the saliva after 72 hours,"[7]; a few patients on fluoxetine/paroxetine, duloxetine or venlafaxine/desvenlafaxine",still detectable
same,concentration at 20 min,"[7]; human, saliva, other: intranasal, 56 mg",> 1000 ng/mL
